# Results as given in PMC4303209, “A novel phosphatidylinositol 3-kinase (PI3K) inhibitor directs a potent FOXO-dependent, p53-independent cell cycle arrest phenotype characterized by the differential induction of a subset of FOXO-regulated genes” (Breast Cancer Research : BCR, 2014).
# Tested on: MCF-7 breast cancer cells
# Assay: Microarray gene expression analysis (Agilent whole human genome 4 x 44K; compound vs DMSO, LIMMA log2 fold change)
# Format: cell-based
smiles,measurement,setting,value
Cn1ncc2c(N3CCOCC3)nc(-c3cccc(O)c3)nc21 [ETP-45658],PRNP log2FC,,0.370
same,log2FC,,0.370
same,AARS log2FC,"Apoptosis genes, Gene 16",-0.198
same,ABL1 log2FC,"Apoptosis genes, Gene 25",-0.156
same,ABR log2FC,"Apoptosis genes, Gene 29",-0.380
same,ACTN4 log2FC,"Apoptosis genes, Gene 81",-0.260
same,ACTN1 log2FC,"Apoptosis genes, Gene 87",-0.609
same,ACTN2 log2FC,"Apoptosis genes, Gene 88",0.099
same,ACTN3 log2FC,"Apoptosis genes, Gene 89",-0.693
same,ACVR1 log2FC,"Apoptosis genes, Gene 90",0.534
same,ACVR1B log2FC,"Apoptosis genes, Gene 91",-0.563
same,ADA log2FC,"Apoptosis genes, Gene 100",-0.213
same,ADAM8 log2FC,"Apoptosis genes, Gene 101",-0.364
same,ADAR log2FC,"Apoptosis genes, Gene 103",-0.197
same,ADCYAP1 log2FC,"Apoptosis genes, Gene 116",0.068
same,ADD1 log2FC,"Apoptosis genes, Gene 118",-0.295
same,ADM log2FC,"Apoptosis genes, Gene 133",-0.856
same,ADORA1 log2FC,"Apoptosis genes, Gene 134",-2.012
same,ADORA2A log2FC,"Apoptosis genes, Gene 135",-0.309
same,ADRB1 log2FC,"Apoptosis genes, Gene 153",-0.090
same,AES log2FC,"Apoptosis genes, Gene 166",-0.293
same,AGT log2FC,"Apoptosis genes, Gene 183",-0.104
same,AHR log2FC,"Apoptosis genes, Gene 196",0.995
same,AKT1 log2FC,"Apoptosis genes, Gene 207",-0.608
same,AKT2 log2FC,"Apoptosis genes, Gene 208",-0.554
same,ALDH1A3 log2FC,"Apoptosis genes, Gene 220",0.149
same,ALDOC log2FC,"Apoptosis genes, Gene 230",-0.120
same,ALK log2FC,"Apoptosis genes, Gene 238",-0.050
same,ALOX15B log2FC,"Apoptosis genes, Gene 247",-0.102
same,ANGPT1 log2FC,"Apoptosis genes, Gene 284",-0.676
same,SLC25A4 log2FC,"Apoptosis genes, Gene 291",-0.331
same,SLC25A5 log2FC,"Apoptosis genes, Gene 292",0.173
same,ANXA1 log2FC,"Apoptosis genes, Gene 301",0.991
same,ANXA4 log2FC,"Apoptosis genes, Gene 307",0.463
same,ANXA5 log2FC,"Apoptosis genes, Gene 308",0.266
same,APAF1 log2FC,"Apoptosis genes, Gene 317",0.550
same,NUDT2 log2FC,"Apoptosis genes, Gene 318",0.291
same,APBB2 log2FC,"Apoptosis genes, Gene 323",-0.357
same,APC log2FC,"Apoptosis genes, Gene 324",0.117
same,BIRC3 log2FC,"Apoptosis genes, Gene 330",-0.843
same,BIRC5 log2FC,"Apoptosis genes, Gene 332",0.154
same,APLP1 log2FC,"Apoptosis genes, Gene 333",-0.281
same,APOE log2FC,"Apoptosis genes, Gene 348",-0.224
same,APP log2FC,"Apoptosis genes, Gene 351",0.379
same,FASLG log2FC,"Apoptosis genes, Gene 356",-0.198
same,AQP2 log2FC,"Apoptosis genes, Gene 359",-0.102
same,AR log2FC,"Apoptosis genes, Gene 367",0.203
same,ARAF log2FC,"Apoptosis genes, Gene 369",-0.542
same,ARF6 log2FC,"Apoptosis genes, Gene 382",-0.682
same,RHOB log2FC,"Apoptosis genes, Gene 388",-0.133
same,ARHGAP4 log2FC,"Apoptosis genes, Gene 393",-0.218
same,ARHGDIA log2FC,"Apoptosis genes, Gene 396",-1.118
same,ARRB2 log2FC,"Apoptosis genes, Gene 409",0.237
same,ASCL1 log2FC,"Apoptosis genes, Gene 429",-0.107
same,ASNS log2FC,"Apoptosis genes, Gene 440",-0.404
same,ATF4 log2FC,"Apoptosis genes, Gene 468",0.324
same,ATM log2FC,"Apoptosis genes, Gene 472",0.117
same,ATP2A1 log2FC,"Apoptosis genes, Gene 487",0.239
same,AVP log2FC,"Apoptosis genes, Gene 551",-0.579
same,AXL log2FC,"Apoptosis genes, Gene 558",-0.230
same,AZU1 log2FC,"Apoptosis genes, Gene 566",-0.123
same,BAD log2FC,"Apoptosis genes, Gene 572",0.276
same,BAG1 log2FC,"Apoptosis genes, Gene 573",1.170
same,BAK1 log2FC,"Apoptosis genes, Gene 578",-0.356
same,BARD1 log2FC,"Apoptosis genes, Gene 580",0.487
same,BAX log2FC,"Apoptosis genes, Gene 581",-0.255
same,BCL2 log2FC,"Apoptosis genes, Gene 596",-0.310
same,BCL2A1 log2FC,"Apoptosis genes, Gene 597",-0.192
same,BCL2L1 log2FC,"Apoptosis genes, Gene 598",-0.991
same,BCL2L2 log2FC,"Apoptosis genes, Gene 599",0.428
same,BCL3 log2FC,"Apoptosis genes, Gene 602",-0.569
same,BCL6 log2FC,"Apoptosis genes, Gene 604",0.771
same,BDNF log2FC,"Apoptosis genes, Gene 627",-0.132
same,BID log2FC,"Apoptosis genes, Gene 637",-0.095
same,BIK log2FC,"Apoptosis genes, Gene 638",-0.815
same,BLM log2FC,"Apoptosis genes, Gene 641",0.293
same,BMP4 log2FC,"Apoptosis genes, Gene 652",0.407
same,BMP7 log2FC,"Apoptosis genes, Gene 655",-0.344
same,BMPR1B log2FC,"Apoptosis genes, Gene 658",-0.091
same,BMX log2FC,"Apoptosis genes, Gene 660",0.114
same,BNIP1 log2FC,"Apoptosis genes, Gene 662",0.672
same,BNIP2 log2FC,"Apoptosis genes, Gene 663",0.527
same,BNIP3 log2FC,"Apoptosis genes, Gene 664",0.774
same,BNIP3L log2FC,"Apoptosis genes, Gene 665",1.085
same,FOXL2 log2FC,"Apoptosis genes, Gene 668",-0.812
same,BRCA1 log2FC,"Apoptosis genes, Gene 672",0.792
same,BRAF log2FC,"Apoptosis genes, Gene 673",-0.105
same,BRCA2 log2FC,"Apoptosis genes, Gene 675",0.092
same,BTC log2FC,"Apoptosis genes, Gene 685",0.205
same,BTG1 log2FC,"Apoptosis genes, Gene 694",1.142
same,BUB1 log2FC,"Apoptosis genes, Gene 699",0.803
same,BUB1B log2FC,"Apoptosis genes, Gene 701",0.344
same,TSPO log2FC,"Apoptosis genes, Gene 706",-0.089
same,C5AR1 log2FC,"Apoptosis genes, Gene 728",0.064
same,CACNA1A log2FC,"Apoptosis genes, Gene 773",-0.187
same,CALR log2FC,"Apoptosis genes, Gene 811",-0.081
same,CAMK2B log2FC,"Apoptosis genes, Gene 816",-0.123
same,CAST log2FC,"Apoptosis genes, Gene 831",0.572
same,CASP1 log2FC,"Apoptosis genes, Gene 834",0.048
same,CASP2 log2FC,"Apoptosis genes, Gene 835",-0.918
same,CASP3 log2FC,"Apoptosis genes, Gene 836",0.546
same,CASP4 log2FC,"Apoptosis genes, Gene 837",0.181
same,CASP5 log2FC,"Apoptosis genes, Gene 838",-0.128
same,CASP6 log2FC,"Apoptosis genes, Gene 839",0.574
same,CASP7 log2FC,"Apoptosis genes, Gene 840",-0.211
same,CASP8 log2FC,"Apoptosis genes, Gene 841",0.613
same,CASP9 log2FC,"Apoptosis genes, Gene 842",0.372
same,CASR log2FC,"Apoptosis genes, Gene 846",0.039
same,CAT log2FC,"Apoptosis genes, Gene 847",0.577
same,CAV1 log2FC,"Apoptosis genes, Gene 857",0.205
same,RUNX3 log2FC,"Apoptosis genes, Gene 864",-0.494
same,CBL log2FC,"Apoptosis genes, Gene 867",0.301
same,CBS log2FC,"Apoptosis genes, Gene 875",-0.275
same,KRIT1 log2FC,"Apoptosis genes, Gene 889",0.668
same,CCNG1 log2FC,"Apoptosis genes, Gene 900",0.908
same,CD2 log2FC,"Apoptosis genes, Gene 914",-0.352
same,CD3E log2FC,"Apoptosis genes, Gene 916",-0.399
same,CD3G log2FC,"Apoptosis genes, Gene 917",-0.295
same,CD5 log2FC,"Apoptosis genes, Gene 921",-0.055
same,CD5L log2FC,"Apoptosis genes, Gene 922",-0.110
same,CD14 log2FC,"Apoptosis genes, Gene 929",-0.514
same,CD28 log2FC,"Apoptosis genes, Gene 940",0.087
same,CD40 log2FC,"Apoptosis genes, Gene 958",-0.420
same,CD44 log2FC,"Apoptosis genes, Gene 960",-0.380
same,CD59 log2FC,"Apoptosis genes, Gene 966",0.286
same,CD74 log2FC,"Apoptosis genes, Gene 972",-0.135
same,CDC34 log2FC,"Apoptosis genes, Gene 997",0.349
same,CDC42 log2FC,"Apoptosis genes, Gene 998",0.143
same,CDK4 log2FC,"Apoptosis genes, Gene 1019",0.113
same,CDKN1A log2FC,"Apoptosis genes, Gene 1026",-1.401
same,CDKN1B log2FC,"Apoptosis genes, Gene 1027",1.129
same,CDKN2A log2FC,"Apoptosis genes, Gene 1029",0.240
same,CDKN2D log2FC,"Apoptosis genes, Gene 1032",0.891
same,CEBPB log2FC,"Apoptosis genes, Gene 1051",-0.358
same,CFL1 log2FC,"Apoptosis genes, Gene 1072",-0.261
same,CTSC log2FC,"Apoptosis genes, Gene 1075",-0.466
same,CGB log2FC,"Apoptosis genes, Gene 1082",-0.136
same,CLU log2FC,"Apoptosis genes, Gene 1191",-0.261
same,CLN3 log2FC,"Apoptosis genes, Gene 1201",-0.330
same,CCR7 log2FC,"Apoptosis genes, Gene 1236",0.098
same,PLK3 log2FC,"Apoptosis genes, Gene 1263",-1.808
same,CNR1 log2FC,"Apoptosis genes, Gene 1268",0.800
same,ATF2 log2FC,"Apoptosis genes, Gene 1386",0.857
same,CRH log2FC,"Apoptosis genes, Gene 1392",0.120
same,CRIP1 log2FC,"Apoptosis genes, Gene 1396",0.282
same,CRYAA log2FC,"Apoptosis genes, Gene 1409",-0.057
same,CRYAB log2FC,"Apoptosis genes, Gene 1410",-0.139
same,MAPK14 log2FC,"Apoptosis genes, Gene 1432",-0.291
same,CSE1L log2FC,"Apoptosis genes, Gene 1434",0.841
same,CSF2 log2FC,"Apoptosis genes, Gene 1437",-0.666
same,CSNK2A1 log2FC,"Apoptosis genes, Gene 1457",-0.545
same,CSNK2A2 log2FC,"Apoptosis genes, Gene 1459",0.183
same,CSTB log2FC,"Apoptosis genes, Gene 1476",0.083
same,NKX2-5 log2FC,"Apoptosis genes, Gene 1482",-0.753
same,CTGF log2FC,"Apoptosis genes, Gene 1490",-0.597
same,CTH log2FC,"Apoptosis genes, Gene 1491",0.708
